Measurements: ChEMBL document CHEMBL3507680, “University of Dundee, Gates Library screen for HepG2 cell viability”

Experiment: Human HepG2 cell viability assay in 384 well format
Type: toxicity, cell-based
Design: dose 125 nL, time 70.5 hour; cytotoxicity at 70.5 h: concentration not given beside the values
Settings: HepG2 cells, read-out: Inhibition

SMILES	cytotoxicity at 70.5 h
CCc1csc(C2CCCN(C(=O)c3ccccn3)C2)n1 (stereo unspecified)	-7.06%
NC(=O)c1cnc2n1CCN(C(=O)c1cccc(Cn3cccn3)c1)C2	-5.38%
CCNC(=O)N1CCCC(C(=O)c2cccc(OC(C)C)c2)C1 (stereo unspecified)	-6.88%
O=C(O)CCCC(=O)Nc1cnn(COc2ccc(F)cc2Cl)c1	7.18%
CC(C)NC(=O)c1cc(Br)c2c(c1)OCCO2	-6.96%
COCCC1(CO)CCCN(C(=O)c2ccc(C(C)C)[nH]c2=O)C1 (stereo unspecified)	11.1%
CNc1cncc(C2CCCN2Cc2ccn(C)n2)n1 (stereo unspecified)	-1.7%
Cn1nc(C(=O)N(CC(F)(F)F)c2cccc(Cl)c2)ccc1=O	9.92%
COCC1CC2(CCN(Cc3cnn(C)c3)CC2)CN1C(C)C (stereo unspecified)	-15.8%
CCc1[nH]c2ccc(CNC(=O)Cc3c(C)nc(N)nc3C)cc2c1C	1.33%
c1coc(CN2Cc3nccn3CC(Cn3cncn3)C2)c1 (stereo unspecified)	1.12%
Cc1ccc(CC(=O)N2CCN(C(C)c3ccccc3F)CC2)cn1 (stereo unspecified)	-2.9%
O=C(NC[C@H]1OC[C@@H](NC2CCC2)[C@@H]1O)Nc1ccccc1	16.4%
Fc1cccc(-c2noc3c2CN(Cc2cncn2C2CC2)CC3)c1	-11.3%
Cc1ccc(Sc2nccn(C)c2=O)cc1	-3.35%
CN(CC1COc2ccccc2O1)C(=O)NCCCn1cncn1 (stereo unspecified)	-4.69%
Cc1cccc(CN2C[C@@H]3COC[C@H](NS(C)(=O)=O)[C@@H]3C2)n1	-15.5%
O=C(c1cc2c(s1)CCC2)N1CCCCC1Cn1cccn1 (stereo unspecified)	-3.46%
CN(Cc1cc(C(C)(C)C)n[nH]1)C(=O)c1cn2ccsc2n1	-2.6%

SMILES	cytotoxicity at 70.5 h
Cc1occc(=O)c1OCc1noc(C(=O)NC(C)C)n1	-15.1%
CN1[C@H](CO)C[C@H](CNCc2ccc(CO)o2)[C@@H]1c1ccccc1F	-4.51%
Cc1cccc(CNc2cncc(-n3cccn3)n2)c1	-5.29%
O=C(c1cccnc1)N1CCC2(CC1)CC(Oc1ccccc1)CO2 (stereo unspecified)	26.5%
Cc1nccc(-c2ccccc2)c1C(=O)N1CCC2(CN(C)C(=O)O2)C1 (stereo unspecified)	-5.07%
CCn1cc(NC(=O)NCCN2CCCc3ccccc32)cn1	0.821%
Cc1cccc(NC(=O)[C@@H]2CCCN2Cc2ccc(C#N)cc2F)n1	-0.253%
CN(C)c1cc(C(=O)N2CCCCC2CNS(C)(=O)=O)ccn1 (stereo unspecified)	0.448%
COC(=O)c1cc2n(n1)CCCN(C(=O)Cc1c[nH]c3ccccc13)C2	-13.9%
COC(=O)c1ccc(OC)c(CN2CCN(CC(C)C)C(=O)C2C)c1 (stereo unspecified)	26.8%
Cc1cc(-c2ccccc2C(=O)O)nc(C2CCCN(C(C)C)C2)n1 (stereo unspecified)	-3.8%
O=C(N[C@@H]1CCC[C@@H](N2CCOCC2)[C@@H]1O)c1cc2ccccc2[nH]1	-5.17%
CCN1CCC2(CC1)CC(NC(=O)NC)c1cc(C)ccc12 (stereo unspecified)	-6.74%
Cc1noc([C@H]2COC[C@H]3CN(C(=O)Cc4cccs4)C[C@H]32)n1	-12.6%
CC(C)N1CCOC(CC(=O)N2CCCN(Cc3ccncc3)CC2)C1 (stereo unspecified)	15.7%
O=C(C1CCOCC1)N1CCO[C@H]2[C@H](Oc3ccccn3)CC[C@@H]21	13.9%
CCOC(C)c1nccn1Cc1noc(CC)n1 (stereo unspecified)	16.7%
O=C(NCCO)c1ccn(-c2ccc3ccccn23)n1	25.4%
CCN(CC(=O)N(C)C)C(=O)c1ccc(-c2nc(C)cs2)cc1	-4.36%

SMILES	cytotoxicity at 70.5 h
Cc1cc(C)c(C)c(OCCCNC(=O)NC(C)c2nncn2C)c1 (stereo unspecified)	14.5%
Cc1nc(NC(=O)C(C)S(C)(=O)=O)sc1Cc1ccccc1F (stereo unspecified)	-7.43%
CSc1cc2c(cc1NC(=O)NCc1ccncc1)OCCO2	2.15%
COCC(=O)N1CCCC(C(=O)N(C)CCn2ccnc2C)C1 (stereo unspecified)	3.1%
COc1ccc(F)cc1NC(=O)NCC1(CN2CCOCC2)CC1	-0.333%
O=C(c1cn(-c2ccccc2Cl)nn1)N1CCN(CCO)CC1	-5.32%
O=C(N1CCCC1)N1C[C@@H]2CN(Cc3ccoc3)CCO[C@@H]2C1	-11.3%
CC(CNC(=O)N1CCN(c2ncccn2)CC1)Cc1cccs1 (stereo unspecified)	17.5%
Cc1nn(C)cc1C(=O)N1CCCn2nc(CN3CC[C@H](F)C3)cc2C1	6.52%
CN(C)CCCC(=O)N1C[C@H]2CC[C@@H]1CN(Cc1ccccc1)C2	-6.09%
CN1CCC(NC(=O)CC2CN(Cc3ccccc3)CCO2)CC1 (stereo unspecified)	-5.42%
Cc1ccccc1CN1CCCN(S(=O)(=O)N(C)C2CCCCC2)CC1	-7.92%
O=C(NCC1CC1)[C@H]1C[C@@H]2CN(C(=O)NCC3CCCCC3)C[C@H]1O2	30.6%
COc1cccc2c1OCC(C(=O)N1CCN(C3CCCC3)C(=O)C1)C2 (stereo unspecified)	-5.59%
Cc1cn2c(n1)CCC(NC(=O)c1cncnc1C)C2 (stereo unspecified)	-5.83%
CCN1C(=O)CC(c2ccccc2)C12CCN(CC1CCOCC1)CC2 (stereo unspecified)	-8.46%
O=C(NCc1ccco1)c1nn(C2CCS(=O)(=O)C2)c2c1CCCC2 (stereo unspecified)	-10.4%
COCC1CN(C(=O)Nc2cc(Cl)cc(Cl)c2)CCO1 (stereo unspecified)	-5.22%
